Where two headings read alike, the source gives them in different places.
What was measured:
[1] = for AUCinf (molar ratio of 2‐hydroxy‐atorvastatin to atorvastatin) / Cmax (molar ratio of 2‐hydroxy‐atorvastatin to atorvastatin): mean (%CV); for increase in Cmax with filgotinib coadministration relative to statin alone: pravastatin 40 mg / rosuvastatin 10 mg, filgotinib 200 mg once daily
Safety assessment = format: in vivo, human (healthy adult participants); settings: by treatment arm
[2] = no reference given, cited from earlier work
[3] = test system: cytochrome P450 enzymes or uridine 5’‐diphospho‐glucuronosyltransferases; settings: in vitro; cited from earlier work
[4] = cited from earlier work
JAK1 = settings: human whole blood assay; cited from earlier work
[5] = clinical trials and postmarketing surveillance; cited from earlier work
[6] = 2-hydroxy-atorvastatin after atorvastatin 40 mg alone, n = 25, median (Q1-Q3)
[7] = 2-hydroxy-atorvastatin, atorvastatin + filgotinib vs atorvastatin alone
[8] = atorvastatin 40 mg + filgotinib 200 mg once daily, n = 26
[9] = atorvastatin 40 mg alone, n = 25
[10] = atorvastatin + filgotinib vs atorvastatin alone
[11] = both, human, plasma, oral, 40 mg
[12] = both, human, plasma, oral, 10 mg
[13] = rosuvastatin + filgotinib vs rosuvastatin alone

For CC(C)c1c(C(=O)Nc2ccccc2O)c(-c2ccccc2)c(-c2ccc(F)cc2)n1CCC(O)CC(O)CC(=O)O (stereo not shown) [2‐Hydroxy‐Atorvastatin, 2‐hydroxy‐atorvastatin], the t1/2 [1, 6] was 9.1 (7.1‐10.9) h, the tmax [1, 6] was 2.0 (1.5‐4.1) h and the “AUCinf GLSM Ratio (90% CI)” value [1, 7] was 1.11 (1.02‐1.22). The “AUClast GLSM Ratio (90% CI)” value [1, 7] was 1.12 (1.02‐1.23), the “Cmax GLSM Ratio (90% CI)” value [1, 7] was 0.98 (0.81‐1.19) and the “AUCinf (molar ratio of 2‐hydroxy‐atorvastatin to atorvastatin)” value [1, 8] was 1.6 (26.3). The “Cmax (molar ratio of 2‐hydroxy‐atorvastatin to atorvastatin)” value [1, 8] was 0.8 (29.3), the “AUCinf (molar ratio of 2‐hydroxy‐atorvastatin to atorvastatin)” value [1, 9] was 1.3 (35.1) and the “Cmax (molar ratio of 2‐hydroxy‐atorvastatin to atorvastatin)” value [1, 9] was 0.7 (43.9). The “AUCinf (molar ratio of 2‐hydroxy‐atorvastatin to atorvastatin) GLSM Ratio (90% CI)” value [1, 10] was 1.22 (1.15‐1.29) and the “Cmax (molar ratio of 2‐hydroxy‐atorvastatin to atorvastatin) GLSM Ratio (90% CI)” value [1, 10] was 1.19 (1.06‐1.33).
In the case of CC(C)c1c(C(=O)Nc2ccccc2)c(-c2ccccc2)c(-c2ccc(F)cc2)n1CC[C@@H](O)C[C@@H](O)CC(=O)O [Atorvastatin], the “participants with treatment‐emergent AE related to study drug, n (%)” value (Safety assessment) is reported as 3 (11.5%) and the “headache, n [%]” value (Safety assessment; all mild or moderate) is reported as 2 [7.7%].
In the case of O=C(Nc1nc2cccc(-c3ccc(CN4CCS(=O)(=O)CC4)cc3)n2n1)C1CC1 [Filgotinib], the “participants with treatment‐emergent AE related to study drug, n (%)” value (Safety assessment) is reported as 8 (30.8%), the “headache, n [%]” value (Safety assessment; all mild or moderate) is reported as 5 [19.2%] and the “nausea, n [%]” value (Safety assessment; all mild or moderate) is reported as 3 [11.5%]. The “accumulation in plasma following multiple once-daily dosing of filgotinib” value [2] was “does not accumulate”, the “interaction with cytochrome P450 enzymes or UGTs” value [3] was “do not interact” and the “effect on QT interval” value [4] was “not affect QT interval”.
For Nc1nc2cccc(-c3ccc(CN4CCS(=O)(=O)CC4)cc3)n2n1 [GS‐829845], the “reduced potency relative to filgotinib” value (JAK1) is listed as “≈ 10 fold”, the “time to achieve steady-state plasma concentrations” value ([2]; multiple once-daily dosing of filgotinib) is listed as “≈ 4 days” and the “accumulation in plasma following multiple once-daily dosing of filgotinib” value [2] is listed as “approximately 2 fold”. For the same molecule, the “interaction with cytochrome P450 enzymes or UGTs” value [3] was “do not interact” and the “effect on QT interval” value [4] was “not affect QT interval”.
With CC[C@H](C)C(=O)O[C@H]1C[C@H](O)C=C2C=C[C@H](C)[C@H](CC[C@@H](O)C[C@@H](O)CC(=O)O)[C@H]21 [Pravastatin] the AUC(0-inf) [1, 11] was 201 ng·h/mL, the AUC(0-t) [1, 11] was 200 ng·h/mL and the tmax [1, 11] was 1 h. For the same molecule, the half-life ([1]; both, human, plasma, oral, t1/2, pravastatin 40 mg (cocktail) + filgotinib 200 mg once daily, n = 26, mean (standard deviation)) was 6.57 h, the half-life ([1]; both, human, plasma, oral, t1/2, pravastatin 40 mg (cocktail) + filgotinib 200 mg once daily, n = 26, median (Q1-Q3)) was 5.6 h and the “increase in Cmax with filgotinib coadministration relative to statin alone” value [1] was 25%. The “AUClast GLSM Ratio (90% CI)” value ([1]; pravastatin + filgotinib vs pravastatin alone) was 1.22 (1.05‐1.41).
For CC(C)c1nc(N(C)S(C)(=O)=O)nc(-c2ccc(F)cc2)c1/C=C/[C@@H](O)C[C@@H](O)CC(=O)O [Rosuvastatin], the “myopathy related to rosuvastatin, patients” value [5] is listed as no more than 0.03%, the AUC(0-inf) [1, 12] is listed as 66 ng·h/mL and the Cmax [1, 12] is listed as 7.5 ng/mL. For the same molecule, the half-life ([1]; both, human, plasma, oral, t1/2, rosuvastatin 10 mg (cocktail) + filgotinib 200 mg once daily, n = 26, median (Q1-Q3)) was 15.4 h, the “increase in Cmax with filgotinib coadministration relative to statin alone” value [1] was 68% and the tmax ([1]; rosuvastatin 10 mg alone (cocktail), n = 25, median (Q1-Q3)) was 3.0 (2.0‐4.0) h. For the same molecule, the “AUCinf GLSM Ratio (90% CI)” value [1, 13] was 1.42 (1.30‐1.57), the “AUClast GLSM Ratio (90% CI)” value [1, 13] was 1.46 (1.32‐1.62) and the “Cmax GLSM Ratio (90% CI)” value [1, 13] was 1.68 (1.43‐1.97).

From publication PMC9293227 (Clinical Pharmacology in Drug Development, 2021)
